Measurements from PubChem BioAssay AID504646 (Southern Research Specialized Biocontainment Screening …, 2011).
“And” between values parts separate entries of the source, which are not always exact repeats. Identical values can stand only once. The source made the active and inactive calls. The rule behind the calls is not given here.

Columns and labels:
[1] = M. tuberculosis growth inhibition in 7H9, dose response, 7H9 media, purified and synthesized samples, set 3 (AID 504646); conditions: Mycobacterium tuberculosis growth in 7H9 media; at 25 µM (top of the series)
[2] = system: Mycobacterium tuberculosis growth in 7H9 media; test: as above; conditions: for IC90: 90% growth inhibition concentration

Question: With `O=C(C1CCC(CNc2c(N3CCCCC3)c(=O)c2=O)CC1)N1CCCCC1` (centres undefined) as the molecule, how does the growth inhibition [1] read?
Answer: -2.59% (inactive)

Question: Which growth inhibition [1] does the source give for `Cc1nc(SCc2ccccc2Cl)[nH]c(=O)c1C` here?
Answer: -6.95% (inactive)

Question: Which IC50 [2] does the source give for `CC1CCN(C(=O)c2ccc(CNc3c(N4CCCC4)c(=O)c3=O)cc2)CC1` here?
Answer: 5810 nM

Question: And the IC90 [2]?
Answer: 6650 nM

Question: Which growth inhibition [1] does the source give for `Cc1[nH]c(=S)[nH]c(=O)c1C` here?
Answer: -8.11% (inactive)

Question: For `CC1CCN(C(=O)C2CCN(c3nnc(-n4cccc4)s3)CC2)CC1`, which IC50 [2] is on record?
Answer: 1550 nM

Question: And the IC90 [2]?
Answer: 2910 nM

Question: Which results are given for `O=C(CSc1nc2ccccc2c(=O)[nH]1)NC1CCCCC1`?
Answer: IC50 [2]: 40 nM; IC90 [2]: 80 nM

Question: Which growth inhibition [1] does the source give for `Cc1nc(SCC(N)=O)[nH]c(=O)c1C` here?
Answer: -2.97% (inactive)

Question: With `Cc1cccc(N2CCN(C(=O)c3ccc(CNc4c(N5CCC(C)CC5)c(=O)c4=O)cc3)CC2)c1C` as the molecule, how does the IC50 [2] read?
Answer: 24500 nM

Question: What about the IC90 [2] of the same molecule?
Answer: > 25000 nM

Question: With `Cc1nc(SCC(=O)NC2CCCCC2)[nH]c(=O)c1C` as the molecule, how does the IC50 [2] read?
Answer: 340 nM and 1860 nM

Question: What about the IC90 [2] of the same molecule?
Answer: 830 nM and 3170 nM

Question: With `Nc1cc(=O)[nH]c(SCC(=O)Nc2ccccc2-c2ccccc2)n1` as the molecule, how does the growth inhibition [1] read?
Answer: -1.58% (inactive)

Question: Which growth inhibition [1] does the source give for `CCc1c(O)nc(SCC(=O)Nc2ccc(OC)cc2)n(C2CCCCC2)c1=O` here?
Answer: -2.19% (inactive)

Question: With `CNc1nc(SCc2ccccc2Cl)nc2c1CCCC2` as the molecule, how does the IC50 [2] read?
Answer: 1150 nM

Question: And the IC90 [2]?
Answer: 3010 nM

Question: For `O=C(NCCc1ccc(Cl)cc1)C1CCC(CNc2c(N3CCCCC3)c(=O)c2=O)CC1` (centres undefined), which IC50 [2] is on record?
Answer: 20400 nM

Question: What about the IC90 [2] of the same molecule?
Answer: > 25000 nM

Question: For `O=C(CSc1nc2c(c(=O)[nH]1)CCC2)Nc1ccc(F)cc1`, which IC50 [2] is on record?
Answer: 10000 nM

Question: And the IC90 [2]?
Answer: 17100 nM

Question: Which results are given for `CC1CC(C)CN(C(=O)c2ccc(CNc3c(N4CCCC4)c(=O)c3=O)cc2)C1` (centres undefined)?
Answer: IC50 [2]: 5140 nM; IC90 [2]: > 25000 nM

Question: For `Nc1cc(=O)[nH]c(SCC(=O)Nc2ccc(Oc3ccccc3)cc2)n1`, which growth inhibition [1] is on record?
Answer: -0.36% (inactive)

Question: For `CCOC(=O)CSc1ncnc2c1cnn2-c1ccc(C)cc1C`, which IC50 [2] is on record?
Answer: 4630 nM

Question: What about the IC90 [2] of the same molecule?
Answer: 7470 nM

Question: What does the source list for `O=C(c1ccc(CNc2c(N3CCCC3)c(=O)c2=O)cc1)N1CC=C(c2ccccc2)CC1`?
Answer: IC50 [2]: 2310 nM; IC90 [2]: > 25000 nM

Question: What does the source list for `COC(=O)C(C)Sc1ncnc2c1nnn2-c1ccc(F)cc1` (centres undefined)?
Answer: IC50 [2]: 1880 nM; IC90 [2]: 4640 nM

Question: With `COc1cc(NC(=O)C/C(C)=N/NC(=O)c2ccccn2)c(OC)cc1Cl` as the molecule, how does the IC50 [2] read?
Answer: 1650 nM

Question: What about the IC90 [2] of the same molecule?
Answer: 4490 nM

Question: Which IC50 [2] does the source give for `CCOC(=O)COc1ccc(/C=C2\NC(=S)N(CC)C2=O)cc1` here?
Answer: 1940 nM

Question: And the IC90 [2]?
Answer: 3700 nM

Question: For `O=C(c1ccc(CNc2c(N3CCCC3)c(=O)c2=O)cc1)N1CCc2ccccc2C1`, which IC50 [2] is on record?
Answer: 3620 nM

Question: And the IC90 [2]?
Answer: 5790 nM

Question: For `COC(=O)c1ccc(CNc2c(N3CCCC3)c(=O)c2=O)cc1`, which growth inhibition [1] is on record?
Answer: -13.4% (inactive)

Question: What does the source list for `CCOC(=O)CSc1ncnc2c1cnn2-c1ccc(C)cc1`?
Answer: IC50 [2]: 6950 nM; IC90 [2]: > 25000 nM

Question: For `Cc1ccc(NC(=O)C2C3/C=C\CCCCC32)cc1C` (centres undefined), which IC50 [2] is on record?
Answer: 1430 nM

Question: And the IC90 [2]?
Answer: > 25000 nM

Question: What does the source list for `Cc1cc(Br)ccc1NC(=O)c1cnc(N2CCN(c3ccccn3)CC2)c2ccccc12`?
Answer: IC50 [2]: 280 nM; IC90 [2]: 2610 nM

Question: Which results are given for `Nc1c(C(=O)NC2CCCCC2)nsc1C(=O)OCC(=O)NC1CCCCC1`?
Answer: IC50 [2]: 1110 nM; IC90 [2]: 2460 nM

Question: With `CCOC(=O)c1ccc(NC(=O)Cn2ncc(Cl)c(Cl)c2=O)cc1` as the molecule, how does the IC50 [2] read?
Answer: 330 nM

Question: What about the IC90 [2] of the same molecule?
Answer: 1200 nM

Question: With `CCc1cc(=O)[nH]c(SCC(=O)Nc2ccc3c(c2)OCCO3)n1` as the molecule, how does the growth inhibition [1] read?
Answer: 3.59% (inactive)

Question: For `Cc1c[nH]c(=S)[nH]c1=O`, which growth inhibition [1] is on record?
Answer: -6.2% (inactive)

Question: What does the source list for `O=C(CSc1nc2ccccc2c(=O)[nH]1)NCc1ccc(Cl)cc1`?
Answer: IC50 [2]: 380 nM and 1300 nM; IC90 [2]: 670 nM and 2020 nM

Question: With `S=c1nc[nH]c2nc[nH]c12` as the molecule, how does the IC50 [2] read?
Answer: 1380 nM

Question: And the IC90 [2]?
Answer: 1960 nM

Question: With `Cc1cc(C)n2nc(N)c(N=Nc3ccccc3)c2n1` as the molecule, how does the IC50 [2] read?
Answer: 2730 nM

Question: And the IC90 [2]?
Answer: 3690 nM

Question: Which growth inhibition [1] does the source give for `Cc1cc(C)cc(NC(=O)CSc2nc3c(c(=O)[nH]2)CN(Cc2ccc(F)cc2)CC3)c1` here?
Answer: -0.33% (inactive)

Question: For `COC(=O)CSc1ncnc2c1cnn2-c1ccc(C)cc1C`, which IC50 [2] is on record?
Answer: 4720 nM

Question: What about the IC90 [2] of the same molecule?
Answer: 7300 nM

Question: Which growth inhibition [1] does the source give for `CCOc1ccc2nc(NC(=O)C(CC)Sc3nc(C)cc(=O)[nH]3)sc2c1` (centres undefined) here?
Answer: 2.52% (inactive)

Question: What does the source list for `CC(=NCc1ccc2c(c1)OCO2)C1=C(O)c2ccccc2C1=O`?
Answer: IC50 [2]: 950 nM; IC90 [2]: > 25000 nM

Question: For `O=C(CSc1ccccn1)NC1CCCCC1`, which growth inhibition [1] is on record?
Answer: -4.91% (inactive)

Question: With `CCOC(=O)C(CC)Sc1ncnc2c1nnn2-c1ccc(F)cc1` (centres undefined) as the molecule, how does the growth inhibition [1] read?
Answer: 12.2% (inactive)

Question: With `CC(C)NC(=O)c1sc(=S)n2c1[nH]c(=O)c1ccc(C(=O)NCCc3ccc(Cl)cc3)cc12` as the molecule, how does the IC50 [2] read?
Answer: 110 nM

Question: And the IC90 [2]?
Answer: 300 nM

Question: What does the source list for `COC(=O)C1CC(=O)N(c2ccc(OCc3ccccc3Cl)cc2)C1` (centres undefined)?
Answer: IC50 [2]: 470 nM; IC90 [2]: 2740 nM

Question: For `Oc1ccccc1/C=N/Nc1ccnc(SCc2ccccc2)n1`, which growth inhibition [1] is on record?
Answer: 2.73% (inactive)

Question: With `COc1ccc(NC(=O)CSc2nc(NS(=O)(=O)c3ccc(C)cc3)cc(=O)[nH]2)cc1` as the molecule, how does the growth inhibition [1] read?
Answer: 1.44% (inactive)

Question: What does the source list for `CCOC(=O)CSc1ncnc2c1nnn2-c1ccc(F)cc1`?
Answer: IC50 [2]: 2460 nM; IC90 [2]: 4350 nM

Question: For `CCOc1ccc(NC(=O)c2ccc(CNc3c(N4CCCC4)c(=O)c3=O)cc2)cc1`, which growth inhibition [1] is on record?
Answer: 0.32% (inactive)

Question: For `CC1CCCN(C(=O)c2ccc(CNc3c(N4CCCCC4)c(=O)c3=O)cc2)C1` (centres undefined), which IC50 [2] is on record?
Answer: 1390 nM

Question: And the IC90 [2]?
Answer: > 25000 nM

Question: For `CCOC(=O)CSc1ncnc2c1cnn2-c1ccccc1`, which IC50 [2] is on record?
Answer: 11200 nM

Question: And the IC90 [2]?
Answer: > 25000 nM

Question: For `Cc1ccc2ccc3ccc(C)nc3c2n1`, which IC50 [2] is on record?
Answer: 180 nM

Question: And the IC90 [2]?
Answer: 480 nM
